This passage reports GI50 and TGI results from PubChem BioAssay (NCI).

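Briefly, cells in 96-well plates were exposed to five compound concentrations for 48 h, and endpoints were estimated by linear interpolation. Here, GI50 denotes the concentration required for 50% inhibition of growth. The concentration for full growth arrest is given as TGI.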

What all share (test): NCI tumour cell line growth inhibition, 48 h
The subject of assay [1] is HL-60(TB) leukemia.
The test system of assay [2] is HOP-62 NSCLC.
Assay [3] deals with KM12 colon.
The subject of assay [4] is MDA-MB-231 breast.
For assay [5], the system named is NCI-H460 lung.
Assay [6] deals with NCI-H522 lung.
In assay [7] the test system is OVCAR-3 ovarian.
The test system of assay [8] is SF-268 CNS.
Assay [9] deals with TK-10 renal.
Assay [10] relates to UACC-257 melanoma.

For the compound `C[C@@]1(N2C(=O)OC[C@@H]2c2ccccc2)C(=O)N([C@H](CC(=O)N2CCC(N3CCCCC3)CC2)C(=O)NCc2cccc(C(F)(F)F)c2)[C@@H]1/C=C/c1ccccc1`, the GI50 in [1] was 2.13 µM; in assay [2] it was 2.03 µM; in assay [3], 2.42 µM; in [4] it was 2.07 µM; in assay [5] it was 2 µM; in assay [6], 1.86 µM. In addition, the GI50 in assay [7] is 1.85 µM; in [8], 1.76 µM; in assay [9], 1.8 µM; in [10], 2.09 µM. The TGI in assay [1] amounted to 4.65 µM; in assay [2] it was 5.76 µM; in assay [3] it was 6.21 µM; in [4], 4.03 µM; in [5], 3.86 µM; in [6], 3.85 µM. In addition, the TGI came to 3.91 µM in assay [7], 3.94 µM in assay [8], 3.76 µM in assay [9] and 3.97 µM in assay [10].
